Inhibition and IC50 data for 12 compounds are collected here from patent US10093630B2, “Pyrazole compounds and methods of making and using same” (ABIDE THERAPEUTICS, INC., priority 2014, dated 2018).

Common to all, as to assay: In vitro competitive activity-based protein profiling (gel-based, FP-Rh or HT-01 probe)
Holding throughout (type): biochemical

In assay [1] the target is T1, MAGL (Mus musculus, UniProt O35678).
T1 construct: Proteomes (mouse brain membrane fraction or cell lysates); from tissue; host or cells: mouse brain membrane fraction (or cell lysates, not specified)
T1 sequence (O35678 1-303): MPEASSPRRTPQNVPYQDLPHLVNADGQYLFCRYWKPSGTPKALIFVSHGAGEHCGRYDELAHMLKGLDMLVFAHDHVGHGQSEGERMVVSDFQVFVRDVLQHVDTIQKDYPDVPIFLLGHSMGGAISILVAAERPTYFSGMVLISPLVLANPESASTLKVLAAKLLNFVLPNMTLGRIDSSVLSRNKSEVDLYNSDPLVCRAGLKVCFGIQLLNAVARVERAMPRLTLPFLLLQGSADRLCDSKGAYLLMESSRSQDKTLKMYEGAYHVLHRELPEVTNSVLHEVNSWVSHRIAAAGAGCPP
To be noted: for inhibition at 1 µM: 1 μM inhibitor; for inhibition at 10 µM: 10 μM inhibitor; for IC50: mouse brain membrane fraction or cell lysates, 30 min preincubation at 37° C., read-out: Mouse (IC50 value, nM) MAGL. The gist of the method:
(§1)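 Mouse brain membrane proteome or cell lysate (1.0 mg/mL protein) was preincubated with inhibitor at varying concentrations for 30 min at 37° C, then labelled with FP-Rh or HT-01 for 30 min at 37° C. After SDS-PAGE, residual hydrolase activity was quantified as in-gel fluorescence of each band.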

Assay [2] has as its target T2, FAAH (Mus musculus, UniProt O08914).
T2 construct: Proteomes (mouse brain membrane fraction or cell lysates); from tissue; host or cells: mouse brain membrane fraction (or cell lysates, not specified)
T2 sequence (O08914 1-579): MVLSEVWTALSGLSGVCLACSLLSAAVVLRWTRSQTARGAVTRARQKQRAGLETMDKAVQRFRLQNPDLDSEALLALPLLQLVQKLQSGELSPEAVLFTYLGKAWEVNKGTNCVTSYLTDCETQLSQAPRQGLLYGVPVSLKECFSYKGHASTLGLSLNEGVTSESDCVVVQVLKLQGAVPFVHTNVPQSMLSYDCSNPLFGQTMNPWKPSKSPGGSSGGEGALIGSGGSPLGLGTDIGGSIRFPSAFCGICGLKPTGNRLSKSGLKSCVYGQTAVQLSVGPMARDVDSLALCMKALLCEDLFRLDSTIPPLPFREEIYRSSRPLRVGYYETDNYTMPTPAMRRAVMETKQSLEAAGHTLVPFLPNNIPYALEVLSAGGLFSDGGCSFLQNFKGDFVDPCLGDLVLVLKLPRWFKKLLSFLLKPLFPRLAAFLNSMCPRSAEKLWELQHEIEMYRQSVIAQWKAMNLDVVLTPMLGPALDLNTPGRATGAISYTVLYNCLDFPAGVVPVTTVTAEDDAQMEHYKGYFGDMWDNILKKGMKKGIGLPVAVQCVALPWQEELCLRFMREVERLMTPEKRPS
To be noted: for inhibition at 1 µM: 1 μM inhibitor, read-out: % Inhibition at 1 μM, B = FAAH; for inhibition at 10 µM: 10 μM inhibitor, read-out: % Inhibition at 10 μM, B = FAAH; for IC50: mouse brain membrane fraction or cell lysates, 30 min preincubation at 37° C., read-out: Mouse (IC50 value, nM) FAAH. The gist of the method:
as §1

Assay [3] addresses T3, ABHD6 (Mus musculus, UniProt Q8R2Y0).
T3 construct: Proteomes (mouse brain membrane fraction or cell lysates); from tissue; host or cells: mouse brain membrane fraction (or cell lysates, not specified)
T3 sequence (Q8R2Y0 1-336): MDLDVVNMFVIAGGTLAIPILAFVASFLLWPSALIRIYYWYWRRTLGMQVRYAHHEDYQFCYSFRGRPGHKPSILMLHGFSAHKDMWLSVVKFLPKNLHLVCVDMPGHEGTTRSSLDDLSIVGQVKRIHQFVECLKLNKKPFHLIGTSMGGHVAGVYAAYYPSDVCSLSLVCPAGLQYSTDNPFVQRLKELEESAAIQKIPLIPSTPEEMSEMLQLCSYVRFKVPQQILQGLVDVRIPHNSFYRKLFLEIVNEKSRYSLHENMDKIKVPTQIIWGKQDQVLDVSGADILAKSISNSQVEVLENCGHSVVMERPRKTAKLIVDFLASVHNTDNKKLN
The conditions noted are these: for inhibition at 1 µM: 1 μM inhibitor, read-out: % Inhibition at 1 μM, C = ABHD6; for inhibition at 10 µM: 10 μM inhibitor, read-out: % Inhibition at 10 μM, C = ABHD6; for IC50: mouse brain membrane fraction or cell lysates, 30 min preincubation at 37° C., read-out: Mouse (IC50 value, nM) ABHD6. The method, boiled down:
as §1

For assay [4], the target named is T4, PLA2G7 (Mus musculus, UniProt Q60963).
T4 construct: Proteomes (mouse brain membrane fraction or cell lysates); from tissue; host or cells: mouse brain membrane fraction (or cell lysates, not specified)
T4 sequence (Q60963 22-440): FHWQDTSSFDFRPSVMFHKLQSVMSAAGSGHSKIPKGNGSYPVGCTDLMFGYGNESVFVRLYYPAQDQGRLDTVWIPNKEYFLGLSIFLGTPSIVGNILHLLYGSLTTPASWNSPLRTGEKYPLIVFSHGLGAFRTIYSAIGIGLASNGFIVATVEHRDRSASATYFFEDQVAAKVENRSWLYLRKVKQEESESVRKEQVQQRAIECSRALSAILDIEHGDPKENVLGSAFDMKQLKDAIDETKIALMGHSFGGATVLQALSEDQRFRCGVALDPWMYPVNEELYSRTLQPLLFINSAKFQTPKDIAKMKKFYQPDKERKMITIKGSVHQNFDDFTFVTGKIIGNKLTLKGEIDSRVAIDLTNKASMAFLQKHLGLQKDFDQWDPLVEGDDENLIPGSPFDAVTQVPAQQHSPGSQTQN
To be noted: for inhibition at 1 µM: 1 μM inhibitor, read-out: % Inhibition at 1 μM, D = PLA2G7; for inhibition at 10 µM: 10 μM inhibitor, read-out: % Inhibition at 10 μM, D = PLA2G7; for IC50: mouse brain membrane fraction or cell lysates, 30 min preincubation at 37° C. The method, boiled down: as §1

Usually inhibition stands for the share of the control response that was lost under treatment. The term IC50 denotes the midpoint of a concentration-inhibition curve.

Molecules are shown by their SMILES. Read-outs that look alike come from different tables or passages of the source.

In the case of `N#Cc1cnn(C(=O)N2CCCCC2)c1` [Example 3, 1-(Piperidine-1-carbonyl)-1H-pyrazole-4-carbonitrile], the inhibition at 1 µM in assay [1], in assay [2], in assay [3] and in assay [4] was more than 75% throughout. The inhibition at 10 µM in assay [1], in assay [2], in assay [3] and in assay [4] was more than 75% in each case.

As for `O=C(N1CCCC1)n1cc(-c2ccc(-c3ccccc3)cc2)cn1` [Example 106, (4-([1,1′-Biphenyl]-4-yl)-1H-pyrazol-1-yl)(pyrrolidin-1-yl)methanone], the inhibition at 10 µM in assay [1] was less than 25%; in assay [2], less than 25%; in assay [3] it was more than 75%; in assay [4], 25 to 75%. For the same compound, the inhibition at 1 µM is 25 to 75% in assay [3] and less than 25% in assay [4].

Consider `O=C(N1CCN(Cc2cccc(Oc3ccccc3)c2)CC1)n1cc(Cl)cn1` [Example 216, (4-Chloro-1H-pyrazol-1-yl)(4-(3-phenoxybenzyl)piperazin-1-yl)methanone], for which the inhibition at 1 µM in assay [1] was more than 75%; in assay [2], more than 75%; in assay [3], more than 75%; in assay [4], less than 25%. Also, the IC50 in assay [1] is less than 100 nM; in assay [2], less than 100 nM; in assay [3], less than 100 nM; in assay [4], more than 1000 nM.

With `O=C(N1CCCCC1)n1cc(C(F)(F)F)cn1` [Example 200, Piperidin-1-yl(4-(trifluoromethyl)-1H-pyrazol-1-yl)methanone], the inhibition at 1 µM in assay [1], in assay [2], in assay [3] and in assay [4] was more than 75% each time. Also, the inhibition at 10 µM in assay [1], in assay [2], in assay [3] and in assay [4] was more than 75% each time. Besides, the IC50 is more than 1000 nM in assay [1], 100 to 1000 nM in assay [2], 100 to 1000 nM in assay [3] and 100 to 1000 nM in assay [4].

Take `O=C(N1CCN(Cc2ccccc2C(F)(F)F)CC1)n1cc(C(F)(F)F)cn1` [Example 279, (4-(Trifluoromethyl)-1H-pyrazol-1-yl)(4-(2-(trifluoromethyl)benzyl)piperazin-1-yl)methanone]: the inhibition at 1 µM in assay [1] (gel-based competitive ABPP), in assay [2] (gel-based competitive ABPP), in assay [3] (gel-based competitive ABPP) and in assay [4] (gel-based competitive ABPP) was more than 75% throughout. The IC50 in assay [1] is less than 100 nM; in assay [2] it was less than 100 nM; in assay [3], less than 100 nM; in assay [4], 100 to 1000 nM.

Consider `N#Cc1cnn(C(=O)N2CCCN(Cc3cccc(OCc4ccccc4)c3)CC2)c1` [Example 300, 1-(4-(3-(Benzyloxy)benzyl)-1,4-diazepane-1-carbonyl)-1H-pyrazole-4-carbonitrile], for which the inhibition at 1 µM in assay [1] (gel-based competitive ABPP) was more than 75%; in assay [2] (gel-based competitive ABPP), more than 75%; in assay [3] (gel-based competitive ABPP), more than 75%; in assay [4] (gel-based competitive ABPP), less than 25%.

With `O=C(N1CCN(c2ccccc2)CC1)n1cc(C(F)(F)F)cn1` [Example 202, (4-Phenylpiperazin-1-yl)(4-(trifluoromethyl)-1H-pyrazol-1-yl)methanone], the inhibition at 1 µM in assay [1], in assay [2], in assay [3] and in assay [4] was more than 75% throughout. The inhibition at 10 µM in assay [1], in assay [2], in assay [3] and in assay [4] was more than 75% in each case.

`O=C(N1CCN(c2cccc(Cl)c2)CC1)n1cc(C(F)(F)F)cn1` [Example 228, (4-(3-Chlorophenyl)piperazin-1-yl)(4-(trifluoromethyl)-1H-pyrazol-1-yl)methanone]: the inhibition at 1 µM in assay [1], in assay [2], in assay [3] and in assay [4] was more than 75% throughout. For the same compound, the inhibition at 10 µM in assay [1], in assay [2], in assay [3] and in assay [4] was more than 75% each time.

Consider `CN(CCN(C)C(=O)n1cc(C(F)(F)F)cn1)C(=O)c1ccccc1` [Example 160, N-methyl-N-(2-(N-methylbenzamido)ethyl)-4-(trifluoromethyl)-1H-pyrazole-1-carboxamide], for which the inhibition at 1 µM in assay [1] is less than 25%; in assay [2], more than 75%; in assay [3], less than 25%; in assay [4], more than 75%. The inhibition at 10 µM in assay [1], in assay [2], in assay [3] and in assay [4] was more than 75% each time.

With `O=C(c1cnn(C(=O)N2CCN(Cc3nccs3)CC2)c1)N1CCCCC1` [Example 74, Piperidin-1-yl(1-(4-(thiazol-2-ylmethyl)piperazine-1-carbonyl)-1H-pyrazol-4-yl)methanone], the inhibition at 1 µM was less than 25% in assay [1], less than 25% in assay [2], more than 75% in assay [3] and more than 75% in assay [4]. Further, the inhibition at 10 µM in assay [1] is less than 25%; in assay [2], more than 75%; in assay [3], more than 75%; in assay [4], more than 75%.

For the compound `CN(CCN(C)S(C)(=O)=O)C(=O)n1cc(Cl)cn1` [Example 198, 4-Chloro-N-methyl-N-(2-(N-methylmethylsulfonamido)ethyl)-1H-pyrazole-1-carboxamide], the inhibition at 10 µM in assay [1], in assay [2], in assay [3] and in assay [4] was less than 25% each time.

On to `O=C(N1CCN(Cc2ccccc2N2CCOCC2)CC1)n1cc(C(F)(F)F)cn1` [Example 281, (4-(2-Morpholinobenzyl)piperazin-1-yl)(4-(trifluoromethyl)-1H-pyrazol-1-yl)methanone], for which the inhibition at 1 µM in assay [1] (gel-based competitive ABPP), in assay [2] (gel-based competitive ABPP), in assay [3] (gel-based competitive ABPP) and in assay [4] (gel-based competitive ABPP) was more than 75% throughout.
